# Key:
# Assay type in all cases: cell-based
# [1] = tested on: rat HEV replicon LA-B350/luc; experiment: antiviral activity against rat HEV replicon LA-B350/luc in Huh7 cells (Gaussia luciferase); settings: Huh-7, 72 h, 3 days, 50% reduction in Luc signal, two experiments
# [2] = viability evaluation (MTS/PMS) of Kernow-C1 p6/luc RNA-transfected Huh7 cells, Example 3; settings: human, highest tested concentration 50 μM, read-out: relative CC50
# Method: For viability evaluation, medium was removed and cells were subsequently incubated with MTS/PMS solution (3-(4,5-dimethylthiazol-2-yl)-5-(3-carboxymethoxyphenyl)-2-(4-sulfophenyl)-2H-tetrazolium/phenazinemethosulfate), which is metabolized to produce a brown, water-soluble product that is quantified after 1 h at 37° C. by absorbance read-out at 498 nm. Obtained values are expressed as percentage of untreated RNA-transfected control condition.
# [3] = viability evaluation (MTS/PMS) of replicon RNA-transfected Huh7 cells, Example 2; settings: human, highest tested concentration 50 μM
# From the text: Obtained values are expressed as percent inhibition of untreated RNA-transfected control condition.
# [4] = tested on: HEV Genotype 3 replicon Kernow-C1 p6/luc; experiment: antiviral activity against HEV Genotype 3 replicon Kernow-C1 p6/luc in Huh7 cells (Gaussia luciferase); settings: Huh-7, 96 h, 4 days, 4PL model, two experiments, read-out: relative EC50
Structure (SMILES),EC50 [1] [nM],CC50 [2] [nM],CC50 [3] [nM],EC50 [4] [nM]
CCOc1nc(N)nc2c1ncn2[C@@H]1O[C@](F)(CO[P@](=O)(N[C@@H](C)C(=O)OC2CCCCC2)Oc2ccccc2)[C@@H](O)[C@@]1(C)F [Compound 1],< 0.64,≤ 50000,> 50000,13
CCOc1nc(N)nc2c1ncn2[C@@H]1O[C@](F)(COP(=O)(N[C@@H](C)C(=O)OC2CCCCC2)Oc2ccccc2)[C@@H](O)[C@@]1(C)O (stereo partly drawn) [Compound 2],8.9,–,–,11
CCOc1nc(N)nc2c1ncn2[C@@H]1O[C@](F)(COP(=O)(OCOC(=O)OC(C)C)OCOC(=O)OC(C)C)[C@@H](O)[C@@]1(C)F [Compound 3],9.9,–,–,12
CCOc1nc(N)nc2c1ncn2[C@@H]1O[C@](F)(COP(=O)(N[C@@H](C)C(=O)OC(C)C)Oc2ccccc2)[C@@H](O)[C@@]1(C)F (stereo partly drawn) [Compound 4],36,–,> 50000,6.5
CCOc1nc(N)nc2c1ncn2[C@@H]1O[C@](F)(COP(=O)(OCOC(=O)OC(C)C)OCOC(=O)OC(C)C)[C@@H](O)[C@@]1(C)O [Compound 6],23,–,–,26
CC(C)OC(=O)[C@H](C)N[P@](=O)(OC[C@@]1(F)O[C@@H](n2ccc(=O)[nH]c2=O)[C@](C)(O)[C@@H]1O)Oc1ccccc1 [Compound 7],110,–,–,42
CCOc1nc(N)nc2c1ncn2[C@@H]1O[C@]2(F)CO[P@@](=O)(N[C@H](C)C(=O)OC(C)C)O[C@H]2[C@@]1(C)F [Compound 8],860,–,–,220
CC(C)OC(=O)OCOP(=O)(OCOC(=O)OC(C)C)OC[C@@]1(F)O[C@@H](n2ccc(=O)[nH]c2=O)[C@](C)(O)[C@@H]1O [Compound 9],4800,–,–,> 50000
C=CCOP1(=O)OC[C@@]2(F)O[C@@H](n3cnc4c(OCC)nc(N)nc43)[C@](C)(F)[C@@H]2O1 (stereo partly drawn) [Compound 10],5700,–,> 50000,1300
CC(C)OC(=O)OCOP(=O)(OCOC(=O)OC(C)C)OC[C@@]1(F)O[C@@H](n2ccc(=O)[nH]c2=O)[C@](C)(F)[C@@H]1O [Compound 11],7300,–,–,720

# Reference: patent US12708641B2 (priority 2020, dated 2026)
